# Measured values: ChEMBL document CHEMBL1201862, “PubChem BioAssay data set” (2004)
#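 Exposure lasted 48 hours, with cells grown in 96-well plates and compounds tested at five concentrations. Here, GI50 denotes the concentration required for 50% inhibition of growth.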 Calls of active or inactive are those of the source. Cut-off read from the data, not from the text of the source: active = GI50 up to about 1.1 µM and inactive = higher.
# How the values were obtained:
# Test in all cases: NCI tumour cell line growth inhibition, 48 h
# [1] = tested on: A498
# [2] = tested on: A549
# [3] = tested on: CAKI-1
# [4] = tested on: CCRF-CEM
# [5] = tested on: COLO 205
# [6] = tested on: DLD-1
# [7] = tested on: DMS-114
# [8] = tested on: DMS-273
# [9] = tested on: EKVX
# [10] = tested on: HCC 2998
# [11] = tested on: HCT-116
# [12] = tested on: HCT-15
# [13] = tested on: HL-60
# [14] = tested on: HOP-18
# [15] = tested on: HOP-62
# [16] = tested on: HOP-92
# [17] = tested on: HT-29
# [18] = tested on: IGROV-1
# [19] = tested on: K562
# [20] = tested on: KM-20L2
# [21] = tested on: KM12
# [22] = tested on: LOX IMVI
# [23] = tested on: M19-MEL
# [24] = tested on: MCF7
# [25] = tested on: MOLT-4
# [26] = tested on: Malme-3M
# [27] = tested on: NCI-H226
# [28] = tested on: NCI-H23
# [29] = tested on: NCI-H460
# [30] = tested on: NCI-H522
# [31] = tested on: NCI/ADR-RES
# [32] = tested on: OVCAR-3
# [33] = tested on: OVCAR-4
# [34] = tested on: OVCAR-5
# [35] = tested on: OVCAR-8
# [36] = tested on: RPMI-8226
# [37] = tested on: RXF 393
# [38] = tested on: SF-268
# [39] = tested on: SF-295
# [40] = tested on: SF-539
# [41] = tested on: SK-MEL-28
# [42] = tested on: SK-MEL-2
# [43] = tested on: SK-MEL-5
# [44] = tested on: SK-OV-3
# [45] = tested on: SN12C
# [46] = tested on: SNB-19
# [47] = tested on: SNB-75
# [48] = tested on: SNB-78
# [49] = tested on: SW-620
# [50] = tested on: U-251
# [51] = tested on: UACC-257
# [52] = tested on: UACC-62
# [53] = tested on: UO-31
# [54] = tested on: XF498
# [55] = tested on: 786-0
# [56] = tested on: ACHN
# [57] = tested on: BT-549
# [58] = tested on: DU-145
# [59] = tested on: Hs-578T
# [60] = tested on: LXFL 529
# [61] = tested on: M14
# [62] = tested on: MDA-MB-435
# [63] = tested on: MDA-N
# [64] = tested on: PC-3
# [65] = tested on: SR
# [66] = tested on: T47D
# [67] = tested on: TK-10
smiles,measurement,setting,value
O=C1CCCn2c3ccccc3c3ccnc1c32,GI50,[1],14.9 µM (inactive)
same,GI50,[2],44.6 µM (inactive)
same,GI50,[3],17.3 µM (inactive)
same,GI50,[4],27.8 µM (inactive)
same,GI50,[5],41.8 µM (inactive)
same,GI50,[6],38.3 µM (inactive)
same,GI50,[7],35 µM (inactive)
same,GI50,[8],46.6 µM (inactive)
same,GI50,[9],12.2 µM (inactive)
same,GI50,[10],41.4 µM (inactive)
same,GI50,[11],30.1 µM (inactive)
same,GI50,[12],41.7 µM
same,GI50,[13],6.89 µM (inactive)
same,GI50,[14],58.3 µM (inactive)
same,GI50,[15],43.1 µM (inactive)
same,GI50,[16],> 62.8 µM (inactive)
same,GI50,[17],23.9 µM (inactive)
same,GI50,[18],34.2 µM (inactive)
same,GI50,[19],40.5 µM (inactive)
same,GI50,[20],51.3 µM (inactive)
same,GI50,[21],62.1 µM (inactive)
same,GI50,[22],36.1 µM (inactive)
same,GI50,[23],41.5 µM (inactive)
same,GI50,[24],36.1 µM (inactive)
same,GI50,[25],30.8 µM (inactive)
same,GI50,[26],35.1 µM (inactive)
same,GI50,[27],19.4 µM (inactive)
same,GI50,[28],50 µM (inactive)
same,GI50,[29],34 µM (inactive)
same,GI50,[30],34.8 µM (inactive)
same,GI50,[31],36.6 µM (inactive)
same,GI50,[32],37.7 µM (inactive)
same,GI50,[33],49 µM (inactive)
same,GI50,[34],35.2 µM (inactive)
same,GI50,[35],34.6 µM (inactive)
same,GI50,[36],23.6 µM (inactive)
same,GI50,[37],24.8 µM (inactive)
same,GI50,[38],30 µM (inactive)
same,GI50,[39],38.9 µM (inactive)
same,GI50,[40],30.8 µM (inactive)
same,GI50,[41],51.6 µM (inactive)
same,GI50,[42],47.1 µM (inactive)
same,GI50,[43],34 µM (inactive)
same,GI50,[44],44.7 µM (inactive)
same,GI50,[45],40.8 µM (inactive)
same,GI50,[46],47.3 µM (inactive)
same,GI50,[47],34.3 µM (inactive)
same,GI50,[48],44.8 µM (inactive)
same,GI50,[49],41.1 µM (inactive)
same,GI50,[50],40.8 µM (inactive)
same,GI50,[51],29.9 µM (inactive)
same,GI50,[52],29.2 µM (inactive)
same,GI50,[53],35 µM (inactive)
same,GI50,[54],25.4 µM (inactive)
COC(=O)c1ccccc1NCc1cc(O)ccc1O,GI50,[55],17.7 µM (inactive)
same,GI50,[1],34.3 µM (inactive)
same,GI50,[2],32.7 µM (inactive)
same,GI50,[56],16.2 µM (inactive)
same,GI50,[57],2.71 µM (inactive)
same,GI50,[3],19.4 µM (inactive)
same,GI50,[4],4.91 µM (inactive)
same,GI50,[5],19.4 µM (inactive)
same,GI50,[6],20.2 µM (inactive)
same,GI50,[8],51.5 µM (inactive)
same,GI50,[58],50.8 µM (inactive)
same,GI50,[9],22 µM (inactive)
same,GI50,[10],23.4 µM (inactive)
same,GI50,[11],19.5 µM (inactive)
same,GI50,[12],18.8 µM
same,GI50,[13],8 µM (inactive)
same,GI50,[14],14.5 µM (inactive)
same,GI50,[15],28.6 µM (inactive)
same,GI50,[16],17.7 µM (inactive)
same,GI50,[17],21.8 µM (inactive)
same,GI50,[59],19.7 µM (inactive)
same,GI50,[18],25.9 µM (inactive)
same,GI50,[19],19.6 µM (inactive)
same,GI50,[20],> 100 µM (inactive)
same,GI50,[21],17.5 µM (inactive)
same,GI50,[22],17.1 µM (inactive)
same,GI50,[60],17.5 µM (inactive)
same,GI50,[61],12.5 µM (inactive)
same,GI50,[23],17.5 µM (inactive)
same,GI50,[24],17.6 µM (inactive)
same,GI50,[62],17.8 µM (inactive)
same,GI50,[63],16.4 µM (inactive)
same,GI50,[25],16.1 µM (inactive)
same,GI50,[26],21.4 µM (inactive)
same,GI50,[27],18 µM (inactive)
same,GI50,[28],32.9 µM (inactive)
same,GI50,[29],30.1 µM (inactive)
same,GI50,[30],2.63 µM (inactive)
same,GI50,[31],19.2 µM (inactive)
same,GI50,[32],16.7 µM (inactive)
same,GI50,[33],17.9 µM (inactive)
same,GI50,[34],29.4 µM (inactive)
same,GI50,[35],18.1 µM (inactive)
same,GI50,[64],17 µM (inactive)
same,GI50,[36],10.5 µM (inactive)
same,GI50,[37],15.9 µM (inactive)
same,GI50,[38],27.9 µM (inactive)
same,GI50,[39],17.9 µM (inactive)
same,GI50,[40],17.7 µM (inactive)
same,GI50,[41],19.1 µM (inactive)
same,GI50,[42],22.3 µM (inactive)
same,GI50,[43],19 µM (inactive)
same,GI50,[44],> 100 µM (inactive)
same,GI50,[45],18.6 µM (inactive)
same,GI50,[46],39 µM (inactive)
same,GI50,[47],28.8 µM (inactive)
same,GI50,[48],20.3 µM (inactive)
same,GI50,[65],> 10 µM (inactive)
same,GI50,[49],24.2 µM (inactive)
same,GI50,[66],15.9 µM (inactive)
same,GI50,[67],26.1 µM (inactive)
same,GI50,[50],20.1 µM (inactive)
same,GI50,[51],15.6 µM (inactive)
same,GI50,[52],18.2 µM (inactive)
same,GI50,[53],17.5 µM (inactive)
same,GI50,[54],17.1 µM (inactive)
